In patent US11058772B2, “(Bacterio)chlorophyll photosensitizers for treatment of eye diseases and disorders” (Yeda Research and Development Co. Ltd., priority 2011, dated 2021):

Tests used:
[1] = test system: rabbit cornea (keratocytes, endothelium), retina; assay: Histology and endothelial staining after in vivo treatment; conditions: two days after treatment
Protocol: Forty eight hours or 1 week after treatment with Bchl-S, Bchl-D, RF or RF-D, rabbits were euthanized, and the eyes were immediately enucleated and fixated in Davidson's fixative (48 hour post treatment) or in 4% formaldehyde (1 week post treatment). […] sections were prepared from either the whole eye or corneas and stained with hematoxylin-eosin (H&E). The pathology of the corneal and retinal sections was examined. The sections were photographed with a digital video camera (Nikon DS-Ril, Japan), mounted on a light microscope (E-800 Leica, Germany). Keratocyte and endothelial cell densities were counted in 2 areas of 2 central histological sections and calculated, using Image-Pro software (MediaCybernetics, MD, USA). Rabbits underwent analysis of corneal endothelial damage 1 day post treatment, using alizarine red S and trypan blue staining as described in Spence and […], 1976. The treatment included either a 20-minute pretreatment with Bchl-S or Bchl-D solutions, followed by 30-minute irradiation at 755 nm (2 rabbits), or only a 30-minute irradiation at 760 nm (2 rabbits). Contralateral non-treated eyes served as controls. One rabbit underwent treatment with WST11 in saline (WST11-S; 20-minute incubation, 30-minute irradiation at 755 nm). Six rabbits underwent treatment with WS[…] (n=4, 20-minute incubation, 30-minute irradiation at 755 nm), or with RF-D (n=2, 30-minute incubation, 30-minute irradiation at 370 nm) as described above (In-vivo studies section). Contralateral eyes were used as control.

rabbit cornea = assay: Stress-strain measurements of ex-vivo treated corneas; conditions: for Mean Young's Modulus Intensity / Mean ultimate stress Intensity: 30 min incubation then 30 min illumination (NIR for WST11, UVA for RF-D); for Mean Young's Modulus Intensity / Mean ultimate stress Intensity / Mean Young's Modulus Increase % / Mean ultimate stress Increase %: dipotassium salt; for Mean Young's Modulus Increase % / Mean ultimate stress Increase %: 30 min incubation, 30 min NIR, vs untreated fellow eyes
Protocol: Eyes of rabbits (15-16 weeks old, weighting 3-4 Kg) were enucleated post mortem. Before enucleation, the 12 and 6 h position were marked on the sclera for preservation of subsequent cutting orientation. The corneas were de-epithelialized mechanically using a PKR scraper (Becton Dickenson, USA). Usually, about 10 rabbits were assigned to bacteriochlorophyll/NIR treatment, herein the “test group” (for example WST11/NIR), and 2 rabbits were treated by RF/UVA (herein the “RF/UVA group”) for comparison. In the test group, 10 eyes of 10 rabbits were immersed upside down for 30 minutes in test compound saline solution (Bchl-S) followed by NIR illumination (600-900 nm) with a diode laser at 10 mW/cm^2 for 30 minutes. The untreated contralateral eyes served as controls. In the RF/UVA group, RF-D solution was topically applied on 2 eyes of 2 rabbits, every 10 minutes, for 30 minutes, followed by UVA irradiation at 370 nm by a double diode at 3 mW/cm^2, for 30 minutes. After treatment, the corneo-scleral rings were removed and placed on paraffin hemisphere buttons with a matching shape to establish accurate sectioning without tissue stretching. […] The strips included 2 mm of sclera on both ends. Central corneal thickness was measured by ultrasonic pachymetry (Humphrey ultrasonic pachymeter, USA). The corneal strips were then transferred to the biomechanical tester.
The corneal and scleral strips were clamped horizontally, at a distance of 6 mm, between the jaws of a microcomputer-controlled biomaterial tester (Minimat, Germany) with a 200 Newton force cell (FIG. 1). Controlled tightening of screws was performed with a calibrated screwdriver at a preset torque of 9 cN.m (Torqueleader, England). The strain was increased linearly at a rate of 1.0 mm/min and was measured up to tissue rupture. Young's modulus was calculated by the testing machine. Ultimate stress and Young's modulus were expressed in Mega Pascal (MPa) units.
Stress-strain measurements were conducted in 12 rabbits as described in Materials and Methods. Briefly, 10 eyes of 10 rabbits were treated by WST11/NIR, and 2 eyes of 2 rabbits were treated by RF-D/UVA. The contralateral eyes served as control.

[2] = test system: de-epithelialized rabbit cornea; assay: Photobleaching of photosensitizer in ex-vivo treated corneas; conditions: 20 min pretreatment
Protocol: Corneas of eyes from euthanized rabbits were de-epithelialized. Usually, 5 rabbits were tested, and 8 of the 10 eyes were pretreated for 20 minutes with a bacteriochlorophyll derivative in saline (Bchl-S), using an eye cap. The solution excess was carefully tipped off with filter paper. The eyes were irradiated for the specified time duration: 0, 10, 30, and 60 min (two corneas per time frame). Additional two eyes were used as control. The corneas were removed, and the central buttons of 8-mm diameter were punched out with a round trephine. Absorption spectra were recorded using V-570 spectrophotometer (Jasco, Japan).
It was previously described by the present inventors that generation of oxygen radicals upon illumination of certain bacteriochlorophyll derivatives such as WST11 in the absence of serum albumin is accompanied by bleaching of the NIR transition and absorption increase at ˜645 nm due to the photochemical generation of a chlorophyll-like molecules (Ashur et al. 2009). Such changes are therefore important markers for the photochemical activity of such bacteriochlorophyll derivatives in situ. […] Results obtained for 10 corneas of 5 euthanized rabbits treated with WST11 in saline are presented herein.
Eight de-epithelialized eyes were retreated with WST11-S for 20 min using an eye cap, and the remaining 2 eyes served as control. […] In parallel, the absorption increased at 645 nm (upward arrow), typical to the corresponding chlorin derivative formation by the photochemical interaction of WST11 with molecular oxygen (Ashur et al., 2009)

## CCC1C2=Cc3c(C)c(C(=O)NCCS(=O)(=O)[O-])c4[n]3[Pd][n]3c(c(C)c(C(C)=O)c3=CC(=N2)C1C)=CC1=NC(=C4CC(=O)OC)C(CCC(=O)[O-])C1C.[K+].[K+] (centres unmarked) [WST11, Palladium 3^1-oxo-15-methoxycarbonylmethyl-rhodobacteriochlorin 13^1-(2-sulfoethyl)amide dipotassium salt]
[1]
  corneal edema (histology): marked edema
  keratocytes in stroma (histology): reduced number of keratocytes throughout the stroma
[1]; H&E and vital staining, listed as WST11-S, dipotassium salt
  endothelial cell layer / damage to the endothelium: appeared intact
[1]; histology
  cornea swelling (thickness): 890 μm
[1]; P=0.47
  endothelial counts, treatment vs control: no statistical difference
Rabbit cornea
  Mean Young's Modulus Intensity: 17.65 ± 8.25 MPa
  Mean ultimate stress Intensity: 5.98 ± 2.11 MPa
  Mean Young's Modulus Increase %: 410%
  Mean ultimate stress Increase %: 286%
Rabbit cornea; listed as WST11-S
  Mean Young's Modulus Intensity: 17.65 MPa
  Mean ultimate stress Intensity: 5.98 MPa
  Mean Young's Modulus Increase %: 369%
  Mean ultimate stress Increase %: 267%
Rabbit cornea; 30 min pre-incubation then NIR, vs untreated control eyes
  increase in the corneal stiffness: ~3 fold
[2]; NIR illumination 10 min
  755-nm absorption of corneal WST11 diminished by: 30%
[2]; NIR illumination 30 min
  755-nm absorption of corneal WST11 diminished by: 50%
[2]; NIR illumination 60 min
  755-nm absorption of corneal WST11 diminished by: 75%
